Assay results published in ChEMBL document CHEMBL1154382, “Preliminary SAR analysis of novel antiproliferative N(6),5'-bis-ureidoadenosine derivatives” (2009).

Tests used:
Type in all cases: functional
Details in all cases: values are per cent of control
CCRF-CEM = assay: Antiproliferative activity against human CCRF-CEM cells at 10 uM assessed as cell growth inhibition relative to control
HL-60(TB) = assay: Antiproliferative activity against human HL-60(TB) cells at 10 uM assessed as cell growth inhibition relative to control
K562 = assay: Antiproliferative activity against human K562 cells at 10 uM assessed as cell growth inhibition relative to control
MOLT-4 = assay: Antiproliferative activity against human MOLT4 cells at 10 uM assessed as cell growth inhibition relative to control
[1] = Antiproliferative activity against human […] cells at 10 uM assessed as cell growth inhibition relative to control
A549 = assay: Antiproliferative activity against human A549 cells at 10 uM assessed as cell growth inhibition relative to control
EKVX = assay: Antiproliferative activity against human EKVX cells at 10 uM assessed as cell growth inhibition relative to control
PC-3 = assay: Antiproliferative activity against human PC3 cells at 10 uM assessed as cell growth inhibition relative to control
HOP-62 = assay: Antiproliferative activity against human HOP62 cells at 10 uM assessed as cell growth inhibition relative to control
HOP-92 = assay: Antiproliferative activity against human HOP92 cells at 10 uM assessed as cell growth inhibition relative to control
NCI-H226 = assay: Antiproliferative activity against human NCI-H226 cells at 10 uM assessed as cell growth inhibition relative to control
NCI-H23 = assay: Antiproliferative activity against human NCI-H23 cells at 10 uM assessed as cell growth inhibition relative to control
NCI-H322M = assay: Antiproliferative activity against human NCI-H322M cells at 10 uM assessed as cell growth inhibition relative to control
NCI-H460 = assay: Antiproliferative activity against human NCI-H460 cells at 10 uM assessed as cell growth inhibition relative to control
NCI-H522 = assay: Antiproliferative activity against human NCI-H522 cells at 10 uM assessed as cell growth inhibition relative to control
COLO 205 = assay: Antiproliferative activity against human COLO205 cells at 10 uM assessed as cell growth inhibition relative to control
HCC 2998 = assay: Antiproliferative activity against human HCC2998 cells at 10 uM assessed as cell growth inhibition relative to control
HCT-116 = assay: Antiproliferative activity against human HCT116 cells at 10 uM assessed as cell growth inhibition relative to control
HCT-15 = assay: Antiproliferative activity against human HCT15 cells at 10 uM assessed as cell growth inhibition relative to control
HT-29 = assay: Antiproliferative activity against human HT-29 cells at 10 uM assessed as cell growth inhibition relative to control
KM12 = assay: Antiproliferative activity against human KM12 cells at 10 uM assessed as cell growth inhibition relative to control
SW-620 = assay: Antiproliferative activity against human SW620 cells at 10 uM assessed as cell growth inhibition relative to control
LOX IMVI = assay: Antiproliferative activity against human LOXIMVI cells at 10 uM assessed as cell growth inhibition relative to control
Malme-3M = assay: Antiproliferative activity against human MALME-3M cells at 10 uM assessed as cell growth inhibition relative to control
M14 = assay: Antiproliferative activity against human M14 cells at 10 uM assessed as cell growth inhibition relative to control
SK-MEL-2 = assay: Antiproliferative activity against human SK-MEL-2 cells at 10 uM assessed as cell growth inhibition relative to control
SK-MEL-28 = assay: Antiproliferative activity against human SK-MEL-28 cells at 10 uM assessed as cell growth inhibition relative to control
SK-MEL-5 = assay: Antiproliferative activity against human SK-MEL-5 cells at 10 uM assessed as cell growth inhibition relative to control
UACC-257 = assay: Antiproliferative activity against human UACC257 cells at 10 uM assessed as cell growth inhibition relative to control
UACC-62 = assay: Antiproliferative activity against human UACC62 cells at 10 uM assessed as cell growth inhibition relative to control
SF-268 = assay: Antiproliferative activity against human SF268 cells at 10 uM assessed as cell growth inhibition relative to control
SF-295 = assay: Antiproliferative activity against human SF295 cells at 10 uM assessed as cell growth inhibition relative to control
SF-539 = assay: Antiproliferative activity against human SF539 cells at 10 uM assessed as cell growth inhibition relative to control
SNB-19 = assay: Antiproliferative activity against human SNB19 cells at 10 uM assessed as cell growth inhibition relative to control
SNB-75 = assay: Antiproliferative activity against human SNB75 cells at 10 uM assessed as cell growth inhibition relative to control
U-251 = assay: Antiproliferative activity against human U251 cells at 10 uM assessed as cell growth inhibition relative to control
IGROV-1 = assay: Antiproliferative activity against human IGROV1 cells at 10 uM assessed as cell growth inhibition relative to control
OVCAR-3 = assay: Antiproliferative activity against human OVCAR-3 cells at 10 uM assessed as cell growth inhibition relative to control
OVCAR-4 = assay: Antiproliferative activity against human OVCAR4 cells at 10 uM assessed as cell growth inhibition relative to control
OVCAR-5 = assay: Antiproliferative activity against human OVCAR5 cells at 10 uM assessed as cell growth inhibition relative to control
OVCAR-8 = assay: Antiproliferative activity against human OVCAR8 cells at 10 uM assessed as cell growth inhibition relative to control
SK-OV-3 = assay: Antiproliferative activity against human SKOV3 cells at 10 uM assessed as cell growth inhibition relative to control
786-0 = assay: Antiproliferative activity against human 786-0 cells at 10 uM assessed as cell growth inhibition relative to control
A498 = assay: Antiproliferative activity against human A498 cells at 10 uM assessed as cell growth inhibition relative to control
ACHN = assay: Antiproliferative activity against human ACHN cells at 10 uM assessed as cell growth inhibition relative to control
CAKI-1 = assay: Antiproliferative activity against human Caki1 cells at 10 uM assessed as cell growth inhibition relative to control
RXF 393 = assay: Antiproliferative activity against human RXF393 cells at 10 uM assessed as cell growth inhibition relative to control
SN12C = assay: Antiproliferative activity against human SN12C cells at 10 uM assessed as cell growth inhibition relative to control
TK-10 = assay: Antiproliferative activity against human TK10 cells at 10 uM assessed as cell growth inhibition relative to control
UO-31 = assay: Antiproliferative activity against human UO31 cells at 10 uM assessed as cell growth inhibition relative to control
BT-549 = assay: Antiproliferative activity against human BT549 cells at 10 uM assessed as cell growth inhibition relative to control
[2] = Antiproliferative activity against human Hs 578T cells at 10 uM assessed as cell growth inhibition relative to control
MCF7 = assay: Antiproliferative activity against human MCF7 cells at 10 uM assessed as cell growth inhibition relative to control
MDA-MB-231 = assay: Antiproliferative activity against human MDA-MB-231 cells at 10 uM assessed as cell growth inhibition relative to control
MDA-MB-468 = assay: Antiproliferative activity against human MDA-MB-468 cells at 10 uM assessed as cell growth inhibition relative to control
T47D = assay: Antiproliferative activity against human T47D cells at 10 uM assessed as cell growth inhibition relative to control
DU-145 = assay: Antiproliferative activity against human DU145 cells at 10 uM assessed as cell growth inhibition relative to control

For `CCOC(=O)C[C@H]1[C@@H](O[Si](C)(C)C(C)(C)C)[C@H](n2cnc3c(N)ncnc32)O[C@@H]1CNC(=O)NC`, the growth, % of control at 10 µM (CCRF-CEM) was 98%, the growth, % of control at 10 µM (HL-60(TB)) was 107% and the growth, % of control at 10 µM (K562) was 106%. The growth, % of control at 10 µM (MOLT-4) was 108%, the growth, % of control at 10 µM [1] was 98% and the growth, % of control at 10 µM (A549) was 84%. It also gave a growth, % of control at 10 µM (EKVX) of 92%, a growth, % of control at 10 µM (PC-3) of 98% and a growth, % of control at 10 µM (HOP-62) of 84%. It also gave a growth, % of control at 10 µM (HOP-92) of 94%, a growth, % of control at 10 µM (NCI-H226) of 99% and a growth, % of control at 10 µM (NCI-H23) of 97%. For the same molecule, the growth, % of control at 10 µM (NCI-H322M) was 94%, the growth, % of control at 10 µM (NCI-H460) was 111% and the growth, % of control at 10 µM (NCI-H522) was 79%. For the same molecule, the growth, % of control at 10 µM (COLO 205) was 117%, the growth, % of control at 10 µM (HCC 2998) was 84% and the growth, % of control at 10 µM (HCT-116) was 100%. The growth, % of control at 10 µM (HCT-15) was 97%, the growth, % of control at 10 µM (HT-29) was 111% and the growth, % of control at 10 µM (KM12) was 103%. It also gave a growth, % of control at 10 µM (SW-620) of 96%, a growth, % of control at 10 µM (LOX IMVI) of 92% and a growth, % of control at 10 µM (Malme-3M) of 95%. It also gave a growth, % of control at 10 µM (M14) of 106%, a growth, % of control at 10 µM (SK-MEL-2) of 91% and a growth, % of control at 10 µM (SK-MEL-28) of 107%. The growth, % of control at 10 µM (SK-MEL-5) was 94%, the growth, % of control at 10 µM (UACC-257) was 86% and the growth, % of control at 10 µM (UACC-62) was 80%. The growth, % of control at 10 µM (SF-268) was 97%, the growth, % of control at 10 µM (SF-295) was 101% and the growth, % of control at 10 µM (SF-539) was 97%. For the same molecule, the growth, % of control at 10 µM (SNB-19) was 99%, the growth, % of control at 10 µM (SNB-75) was 86% and the growth, % of control at 10 µM (U-251) was 98%. It also gave a growth, % of control at 10 µM (IGROV-1) of 97%, a growth, % of control at 10 µM (OVCAR-3) of 98% and a growth, % of control at 10 µM (OVCAR-4) of 99%. The growth, % of control at 10 µM (OVCAR-5) was 87%, the growth, % of control at 10 µM (OVCAR-8) was 100% and the growth, % of control at 10 µM (SK-OV-3) was 110%. It also gave a growth, % of control at 10 µM (786-0) of 93%, a growth, % of control at 10 µM (A498) of 109% and a growth, % of control at 10 µM (ACHN) of 90%. For the same molecule, the growth, % of control at 10 µM (CAKI-1) was 96%, the growth, % of control at 10 µM (RXF 393) was 138% and the growth, % of control at 10 µM (SN12C) was 88%. It also gave a growth, % of control at 10 µM (TK-10) of 101%, a growth, % of control at 10 µM (UO-31) of 87% and a growth, % of control at 10 µM (BT-549) of 85%. For the same molecule, the growth, % of control at 10 µM [2] was 98%, the growth, % of control at 10 µM (MCF7) was 87% and the growth, % of control at 10 µM (MDA-MB-231) was 96%. It also gave a growth, % of control at 10 µM (MDA-MB-468) of 92%, a growth, % of control at 10 µM (T47D) of 95% and a growth, % of control at 10 µM (DU-145) of 98%.
